Each compound was assayed against T1, Neutrophil elastase (Homo sapiens, UniProt P08246) (assay: Inhibitory activity against human leukocyte elastase (HLE) was determined).
T1 sequence (P08246 whole entry): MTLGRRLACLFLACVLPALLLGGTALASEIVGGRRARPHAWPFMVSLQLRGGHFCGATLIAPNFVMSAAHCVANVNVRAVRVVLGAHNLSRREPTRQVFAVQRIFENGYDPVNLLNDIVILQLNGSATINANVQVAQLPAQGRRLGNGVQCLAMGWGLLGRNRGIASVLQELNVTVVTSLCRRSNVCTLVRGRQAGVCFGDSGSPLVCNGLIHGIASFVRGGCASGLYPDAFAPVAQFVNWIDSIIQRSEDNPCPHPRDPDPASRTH
Compound `C[C@@H](O)[C@H]1C(=O)N2C/C(=C/C(=O)OC(C)(C)C)S[C@H]12` has a Ki of 4 µM.
Work on `C[C@@H](O)[C@H]1C(=O)N2S/C(=C/C(=O)OC(C)(C)C)C[C@H]12` yielded a Ki of 3.2 µM.
In the case of `C[C@@H](O)[C@H]1C(=O)N2S/C(=C/C(=O)OC(C)(C)C)S[C@H]12`, the Ki is reported as 1.5 µM.
In the case of `C[C@@H](O)[C@H]1C(=O)N2C/C(=C/C(=O)OC(C)(C)C)C[C@H]12`, the Ki is reported as over 100 µM.
For `C[C@@H](O)[C@H]1C(=O)N2S/C(=C\C(=O)OC(C)(C)C)S[C@H]12`, the Ki was 12 µM.
Work on `C[C@@H](OC(=O)Cc1ccccc1)[C@H]1C(=O)N2S/C(=C/C(=O)OC(C)(C)C)S[C@H]12` yielded a Ki of 0.4 µM.
For `C[C@@H](O)[C@@H]1C(=O)N2S/C(=C/C(=O)OC(C)(C)C)S[C@@H]12`, the Ki was over 100 µM.

These compounds were tested against T2, Neutrophil elastase (Homo sapiens) (UniProt P08246).
T2 sequence (whole entry): T1 sequence (P08246 whole entry)
Description: Rate constant for the compound was determined against human leukocyte elastase (HLE)
In the case of `C[C@@H](O)[C@H]1C(=O)N2S/C(=C/C(=O)OC(C)(C)C)S[C@H]12`, the k off is reported as 0.0014 s⁻¹.
Compound `C[C@@H](O)[C@H]1C(=O)N2S/C(=C\C(=O)OC(C)(C)C)S[C@H]12` has a k off of 0.002 s⁻¹.
Work on `C[C@@H](OC(=O)Cc1ccccc1)[C@H]1C(=O)N2S/C(=C/C(=O)OC(C)(C)C)S[C@H]12` yielded a k off of 0.0004 s⁻¹.

Target: T2, Neutrophil elastase (Homo sapiens)
Remark: another data set of the same source
Description: Rate constant for the compound was determined (k2/ki) against human leukocyte elastase (HLE)
Work on `C[C@@H](O)[C@H]1C(=O)N2S/C(=C/C(=O)OC(C)(C)C)S[C@H]12` yielded a k on of 1000 M⁻¹ s⁻¹.
For `C[C@@H](O)[C@H]1C(=O)N2S/C(=C\C(=O)OC(C)(C)C)S[C@H]12`, the k on was 150 M⁻¹ s⁻¹.
`C[C@@H](OC(=O)Cc1ccccc1)[C@H]1C(=O)N2S/C(=C/C(=O)OC(C)(C)C)S[C@H]12` gave a k on of 970 M⁻¹ s⁻¹.

Target: T2, Neutrophil elastase (Homo sapiens)
Remark: another data set of the same source
Description: Alkaline hydrolysis constant for the compound was determined against human leukocyte elastase (HLE)
With `C[C@@H](O)[C@H]1C(=O)N2S/C(=C/C(=O)OC(C)(C)C)S[C@H]12` the kOH was 12 M⁻¹ s⁻¹.
`C[C@@H](O)[C@H]1C(=O)N2S/C(=C\C(=O)OC(C)(C)C)S[C@H]12` showed a kOH of 3 M⁻¹ s⁻¹.
Compound `C[C@@H](OC(=O)Cc1ccccc1)[C@H]1C(=O)N2S/C(=C/C(=O)OC(C)(C)C)S[C@H]12` has a kOH of 0.04 M⁻¹ s⁻¹.
With `C[C@@H](O)[C@@H]1C(=O)N2S/C(=C/C(=O)OC(C)(C)C)S[C@@H]12` the kOH was 10.3 M⁻¹ s⁻¹.

— ChEMBL document CHEMBL1149952, “Inhibition of human leukocyte elastase (HLE) by novel bicyclic -lactams” (Bioorg Med Chem Lett, 1993)
